Experimental data published in ChEMBL document CHEMBL3779772, “Synthesis of tetracyclic iminosugars fused benzo[e][1,3]thiazin-4-one and their HIV-RT inhibitory activity” (Bioorg Med Chem Lett, 2016).

target: Human immunodeficiency virus type 1 reverse transcriptase (Human immunodeficiency virus 1, UniProt Q72547); experiment: Inhibition of HIV1 reverse transcriptase using DIG-labeled dNTPs as substrate after 1 hr by ELISA

IC50 [µM] | Structure (SMILES)
8.21 | O=C1CN2C(=O)c3ccccc3S[C@H]2[C@H]2[C@H](O)[C@H](O)CN12
9.65 | C[C@H]1C(=O)N2C[C@@H](O)[C@@H](O)[C@@H]2[C@@H]2Sc3ccccc3C(=O)N12
2.01 | C[C@@H]1C(=O)N2C[C@@H](O)[C@@H](O)[C@@H]2[C@@H]2Sc3ccccc3C(=O)N12
0.82 | O=C1CN2C(=O)c3ccccc3S[C@@H]2[C@H]2[C@H](O)[C@H](O)CN12
4.21 | C[C@H]1C(=O)N2C[C@@H](O)[C@@H](O)[C@@H]2[C@H]2Sc3ccccc3C(=O)N21
